# Measurements from ChEMBL document CHEMBL4425146, “Synthesis and biological evaluation of N(9)-substituted harmine derivatives as potential anticancer agents” (Bioorg Med Chem Lett, 2016).
# How the values were obtained:
# Type in all cases: functional, cell-based
# [1] = test system: A549; test: Cytotoxicity against human A549 cells assessed as inhibition of cell growth after 48 hrs by MTT assay; conditions: A549, 48 h
# [2] = test system: MCF7; test: Cytotoxicity against human MCF7 cells assessed as inhibition of cell growth after 48 hrs by MTT assay; conditions: MCF7, 48 h
# [3] = test system: SMMC-7721; test: Cytotoxicity against human SMMC7721 cells assessed as inhibition of cell growth after 48 hrs by MTT assay; conditions: SMMC-7721, 48 h
# [4] = test system: SGC-7901; test: Cytotoxicity against human SGC7901 cells assessed as inhibition of cell growth after 48 hrs by MTT assay; conditions: SGC-7901, 48 h
# [5] = test system: MCF7; test: Cytotoxicity against human MCF7 cells assessed as inhibition of cell growth
# [6] = test system: COLO 205; test: Cytotoxicity against human COLO205 cells assessed as inhibition of cell growth after 48 hrs by MTT assay; conditions: COLO 205, 48 h
# [7] = test system: HL-60; test: Cytotoxicity against human HL60 cells assessed as inhibition of cell growth after 48 hrs by MTT assay; conditions: HL-60, 48 h
Compound,IC50 [1] [µM],IC50 [2] [µM],IC50 [3] [µM],IC50 [4] [µM],IC50 [5] [µM],IC50 [6] [µM],IC50 [7] [µM]
COc1ccc2c3ccnc(C)c3n(C(=O)c3ccccc3)c2c1,2.81,> 50,> 50,7.69,,,
CCCCn1c2cc(OC)ccc2c2ccnc(C)c21,6.09,> 50,28.6,11.3,,,
COc1ccc2c3ccnc(C)c3n(Cc3ccc(F)cc3)c2c1,8.73,> 50,> 50,7.21,,,
CCCn1c2cc(OC)ccc2c2ccnc(C)c21,9.66,> 50,48.8,19.4,,,
CCn1c2cc(OC)ccc2c2ccnc(C)c21,26.4,> 50,24,29.6,,,
COc1ccc2c3ccnc(C)c3n(Cc3ccc(C)cc3)c2c1,3.89,> 50,21.3,5.29,,,
COc1ccc2c3ccnc(C)c3n(Cc3ccccc3C)c2c1,8.34,> 50,39.5,17.2,,,
COc1ccc2c3ccnc(C)c3n(CCCCCCBr)c2c1,0.87,0.45,3.79,6.94,,,
CCCCCCn1c2cc(OC)ccc2c2ccnc(C)c21,4.89,> 50,14.4,13.3,,,
COc1ccc2c3ccnc(C)c3n(C(=O)c3ccc(C)cc3)c2c1,1.33,> 50,> 50,2.88,,,
OCc1ccc2c(c1)c1ccccc1n2Cc1ccc(Cl)nc1,,,,,20 to 30,,
COc1ccc2c(c1)[nH]c1c(C)nccc12 [HARMINE],42.2,68.3,59.4,40.8,,,
COc1cc(Cn2c3ccc(C(C)=O)cc3c3ccnc(C)c32)cc(OC)c1OC,,,,,,0.52,0.03
COc1ccc2c3ccnc(C)c3n(S(=O)(=O)c3ccccc3)c2c1,0.83,> 50,> 50,5.95,,,
